A word on the IC50: it is the point on the concentration scale where inhibition reaches its midpoint.

The values that follow come from US20240116985A1, “STAPLED PEPTIDES AND METHODS THEREOF” (priority 2020, published 2024).

Molecules are shown by their SMILES.

The assay addresses T1, full-length beta-Catenin (Uniprot ID P35222) (Homo sapiens, UniProt P35222).
T1 construct: 10 nM full-length beta-Catenin (Uniprot ID P35222)
T1 sequence (P35222 1-781): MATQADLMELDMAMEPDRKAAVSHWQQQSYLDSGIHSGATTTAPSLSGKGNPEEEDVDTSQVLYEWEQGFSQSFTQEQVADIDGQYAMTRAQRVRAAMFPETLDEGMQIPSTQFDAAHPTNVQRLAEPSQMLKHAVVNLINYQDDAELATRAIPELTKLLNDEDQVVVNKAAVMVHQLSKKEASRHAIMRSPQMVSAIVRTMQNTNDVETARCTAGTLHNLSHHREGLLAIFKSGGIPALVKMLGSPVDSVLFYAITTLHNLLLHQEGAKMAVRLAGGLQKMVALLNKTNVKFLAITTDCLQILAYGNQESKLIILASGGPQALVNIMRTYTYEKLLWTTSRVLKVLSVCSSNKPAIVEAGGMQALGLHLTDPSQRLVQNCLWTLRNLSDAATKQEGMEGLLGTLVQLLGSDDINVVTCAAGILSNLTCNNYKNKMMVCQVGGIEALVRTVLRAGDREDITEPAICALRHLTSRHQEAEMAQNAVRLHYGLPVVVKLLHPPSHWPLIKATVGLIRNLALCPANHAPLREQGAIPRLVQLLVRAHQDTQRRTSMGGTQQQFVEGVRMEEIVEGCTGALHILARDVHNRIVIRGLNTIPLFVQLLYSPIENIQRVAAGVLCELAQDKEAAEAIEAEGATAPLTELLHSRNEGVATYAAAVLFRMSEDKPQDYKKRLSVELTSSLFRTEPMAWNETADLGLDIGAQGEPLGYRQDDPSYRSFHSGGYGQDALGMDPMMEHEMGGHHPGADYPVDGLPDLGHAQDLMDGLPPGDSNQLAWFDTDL
The assay can be described thus: Fluorescence polarization IC50 (beta-catenin / 5FAM-TCF4 10-53 competition). Format: binding. The settings on record: fluorescence polarization; read-out: beta-Catenin FP IC50. In general terms: In fluorescence polarisation assays a small probe gives low polarisation when free and higher when bound to something large.

Take `CC(=O)N1CCC[C@]12CC=CCCCC1(CCCC=CCCCOC(=O)N3CC[C@@](C(=O)N[C@@H](Cc4ccsc4)C(=O)N[C@@H](Cc4csc5ccccc45)C(=O)N[C@@H](CCC(N)=O)C(N)=O)(C3)NC(=O)[C@H](CC(C)C)NC(=O)[C@H](Cc3ccccc3)NC(=O)[C@H](C)NC(=O)[C@H](C)NC(=O)[C@H](CN3CCCC[C@@H]3C(=O)O)NC(=O)[C@H](CC(=O)O)NC1=O)NC(=O)[C@H](CC(C)(C)C)NC(=O)[C@H](CC(=O)O)NC2=O` (stereo partly drawn) [I-1969, Ac-PL3-Asp-Npg-B5-Asp-R2COOPipA-Ala-Ala-Phe-Leu-PyrS2-3Thi-BztA-Gln-NH2]: the IC50 worked out at 49 nM. The result for `CC(=O)N1CCC[C@]12CC=CCCC1(CCC=CCCOC(=O)N3CC[C@@](C(=O)N[C@@H](Cc4ccsc4)C(=O)N[C@@H](Cc4csc5ccccc45)C(=O)N[C@@H](CCC(N)=O)C(N)=O)(C3)NC(=O)[C@H](CC(C)C)NC(=O)[C@H](Cc3ccccc3)NC(=O)[C@H](C)NC(=O)[C@H](C)NC(=O)[C@H](CC(=O)O)NC(=O)[C@H](CC(=O)O)NC1=O)NC(=O)[C@H](CC(C)(C)C)NC(=O)[C@H](CC(=O)O)NC2=O` (stereo partly drawn) [I-1970, Ac-PL3-Asp-Npg-B4-Asp-Asp-Ala-Ala-Phe-Leu-PyrS1-3Thi-BztA-Gln-NH2] reads 441 nM; that for `CC(=O)N1CCC[C@]12CC=CCCC1(CCC=CCCCOC(=O)N3CC[C@@](C(=O)N[C@@H](Cc4ccsc4)C(=O)N[C@@H](Cc4csc5ccccc45)C(=O)N[C@@H](CCC(N)=O)C(N)=O)(C3)NC(=O)[C@H](CC(C)C)NC(=O)[C@H](Cc3ccccc3)NC(=O)[C@H](C)NC(=O)[C@H](C)NC(=O)[C@H](CC(=O)O)NC(=O)[C@H](CC(=O)O)NC1=O)NC(=O)[C@H](CC(C)(C)C)NC(=O)[C@H](CC(=O)O)NC2=O` (stereo partly drawn) [I-1971, Ac-PL3-Asp-Npg-B4-Asp-Asp-Ala-Ala-Phe-Leu-PyrS2-3Thi-BztA-Gln-NH2], 475 nM; that for `CC(=O)N1CCC[C@]12CC=CCCC1(CCC=CCCCOC(=O)N3CC[C@@](C(=O)N[C@@H](Cc4ccsc4)C(=O)N[C@@H](Cc4csc5ccccc45)C(=O)N[C@@H](CCC(N)=O)C(N)=O)(C3)NC(=O)[C@H](CC(C)C)NC(=O)[C@H](Cc3ccccc3)NC(=O)[C@H](C)NC(=O)[C@H](C)NC(=O)[C@H](CC(=O)O)NC(=O)[C@H](CC(=O)O)NC1=O)NC(=O)[C@H](CC(C)(C)C)NC(=O)[C@H](CC(=O)O)NC2=O` (stereo partly drawn) [I-1972, Ac-PL3-Asp-Npg-B4-Asp-Asp-Ala-Ala-Phe-Leu-PyrS2-3Thi-BztA-Gln-NH2], 689 nM.

As to `CC(=O)N1CCC[C@]12CC=CCCC1(CCC=CCCCCOC(=O)N3CC[C@@](C(=O)N[C@@H](Cc4ccsc4)C(=O)N[C@@H](Cc4csc5ccccc45)C(=O)N[C@@H](CCC(N)=O)C(N)=O)(C3)NC(=O)[C@H](CC(C)C)NC(=O)[C@H](Cc3ccccc3)NC(=O)[C@H](C)NC(=O)[C@H](C)NC(=O)[C@H](CC(=O)O)NC(=O)[C@H](CC(=O)O)NC1=O)NC(=O)[C@H](CC(C)(C)C)NC(=O)[C@H](CC(=O)O)NC2=O` (stereo partly drawn) [I-1973, Ac-PL3-Asp-Npg-B4-Asp-Asp-Ala-Ala-Phe-Leu-PyrS3-3Thi-BztA-Gln-NH2], the IC50 amounted to 797 nM. In the case of `CC(=O)N1CCC[C@]12CCCCCC1(CCCCCCOC(=O)N3CC[C@@](C(=O)N[C@@H](Cc4ccsc4)C(=O)N[C@@H](Cc4csc5ccccc45)C(=O)N[C@@H](CCC(N)=O)C(N)=O)(C3)NC(=O)[C@H](CC(C)C)NC(=O)[C@H](Cc3ccccc3)NC(=O)[C@H](C)NC(=O)[C@H](C)NC(=O)[C@H](CC(=O)O)NC(=O)[C@H](CC(=O)O)NC1=O)NC(=O)[C@H](CC(C)(C)C)NC(=O)[C@H](CC(=O)O)NC2=O` (stereo partly drawn) [I-1974, Ac-PL3-Asp-Npg-B4-Asp-Asp-Ala-Ala-Phe-Leu-PyrS1-3Thi-BztA-Gln-NH2], the IC50 amounted to 324 nM. To `CC(=O)N1CCC[C@]12CCCCCC1(CCCCCCCOC(=O)N3CC[C@@](C(=O)N[C@@H](Cc4ccsc4)C(=O)N[C@@H](Cc4csc5ccccc45)C(=O)N[C@@H](CCC(N)=O)C(N)=O)(C3)NC(=O)[C@H](CC(C)C)NC(=O)[C@H](Cc3ccccc3)NC(=O)[C@H](C)NC(=O)[C@H](C)NC(=O)[C@H](CC(=O)O)NC(=O)[C@H](CC(=O)O)NC1=O)NC(=O)[C@H](CC(C)(C)C)NC(=O)[C@H](CC(=O)O)NC2=O` (stereo partly drawn) [I-1975, Ac-PL3-Asp-Npg-B4-Asp-Asp-Ala-Ala-Phe-Leu-PyrS2-3Thi-BztA-Gln-NH2] belongs 745 nM; to `CC(=O)N1CCC[C@]12CCCCCC1(CCCCCCCCOC(=O)N3CC[C@@](C(=O)N[C@@H](Cc4ccsc4)C(=O)N[C@@H](Cc4csc5ccccc45)C(=O)N[C@@H](CCC(N)=O)C(N)=O)(C3)NC(=O)[C@H](CC(C)C)NC(=O)[C@H](Cc3ccccc3)NC(=O)[C@H](C)NC(=O)[C@H](C)NC(=O)[C@H](CC(=O)O)NC(=O)[C@H](CC(=O)O)NC1=O)NC(=O)[C@H](CC(C)(C)C)NC(=O)[C@H](CC(=O)O)NC2=O` (stereo partly drawn) [I-1976, Ac-PL3-Asp-Npg-B4-Asp-Asp-Ala-Ala-Phe-Leu-PyrS3-3Thi-BztA-Gln-NH2], 150 nM; to `CC(=O)N1CCC[C@]12CC=CCCCC[C@@](C)(C(=O)N[C@@H](CC(=O)O)C(=O)N[C@@H](CC(=O)O)C(=O)N[C@@H](C)C(=O)N[C@@H](C)C(=O)N[C@@H](Cc1ccccc1)C(=O)N[C@@H](CC(C)C)C(=O)NC(C)(C)C(=O)N[C@@H](Cc1ccsc1)C(=O)N[C@@H](Cc1csc3ccccc13)C(=O)N[C@@H](CCC(N)=O)C(N)=O)NC(=O)[C@H](CC(C)(C)C)NC(=O)[C@H](CC(=O)O)NC2=O` [I-1977, Ac-PL3-Asp-Npg-S6-Asp-Asp-Ala-Ala-Phe-Leu-Aib-3Thi-BztA-Gln-NH2], 4280 nM. The result for `CC(=O)N1CCC[C@]12CCCCCCC[C@@](C)(C(=O)N[C@@H](CC(=O)O)C(=O)N[C@@H](CC(=O)O)C(=O)N[C@@H](C)C(=O)N[C@@H](C)C(=O)N[C@@H](Cc1ccccc1)C(=O)N[C@@H](CC(C)C)C(=O)NC(C)(C)C(=O)N[C@@H](Cc1ccsc1)C(=O)N[C@@H](Cc1csc3ccccc13)C(=O)N[C@@H](CCC(N)=O)C(N)=O)NC(=O)[C@H](CC(C)(C)C)NC(=O)[C@H](CC(=O)O)NC2=O` [I-1981, Ac-PL3-Asp-Npg-S6-Asp-Asp-Ala-Ala-Phe-Leu-Aib-3Thi-BztA-Gln-NH2] reads 567 nM; that for `CC(=O)N1CCC[C@]12CCCCC[C@@](C)(C(=O)N[C@@H](CC(=O)O)C(=O)N[C@@H](CC(=O)O)C(=O)N[C@@H](C)C(=O)N[C@@H](C)C(=O)N[C@@H](Cc1ccccc1)C(=O)N[C@@H](CC(C)C)C(=O)NC(C)(C)C(=O)N[C@@H](Cc1ccsc1)C(=O)N[C@@H](Cc1csc3ccccc13)C(=O)N[C@@H](CCC(N)=O)C(N)=O)NC(=O)[C@H](CC(C)(C)C)NC(=O)[C@H](CC(=O)O)NC2=O` [I-1982, Ac-PL3-Asp-Npg-S4-Asp-Asp-Ala-Ala-Phe-Leu-Aib-3Thi-BztA-Gln-NH2], 9660 nM; that for `CC(C)C[C@@H]1NC(=O)[C@H](Cc2ccccc2)NC(=O)[C@H](C)NC(=O)[C@H](C)NC(=O)[C@H](Cc2cccc(C(=O)O)c2)NC(=O)[C@H](CC(=O)O)NC(=O)C2(CCCC=CCCCOC(=O)N3CC[C@@](C(=O)N[C@@H](Cc4ccccc4Cl)C(=O)N[C@@H](Cc4csc5ccccc45)C(=O)N[C@@H](CCC(N)=O)C(N)=O)(C3)NC1=O)CCCC=CCCC(=O)N1CCCC1C(=O)N[C@@H](CC(=O)O)C(=O)N[C@@H](CC(C)(C)C)C(=O)N2` (stereo partly drawn) [I-1984, ProAm5-Asp-Npg-B5-Asp-3COOHF-Ala-Ala-Phe-Leu-PyrS2-2C1F-BztA-Gln-NH2], 320 nM. Regarding `CC(C)C[C@@H]1NC(=O)[C@H](Cc2ccccc2)NC(=O)[C@H](C)NC(=O)[C@H](C)NC(=O)[C@H](Cc2cccc(C(=O)O)c2)NC(=O)[C@H](CC(=O)O)NC(=O)C2(CCCC=CCCCOC(=O)N3CC[C@@](C(=O)N[C@@H](Cc4ccccc4Cl)C(=O)N[C@@H](Cc4csc5ccccc45)C(=O)N[C@@H](CCC(N)=O)C(N)=O)(C3)NC1=O)CCCC=CCCCC(=O)N1CCC[C@@H]1C(=O)N[C@@H](CC(=O)O)C(=O)N[C@@H](CC(C)(C)C)C(=O)N2` (stereo partly drawn) [I-1985, ProAm6-Asp-Npg-B5-Asp-3COOHF-Ala-Ala-Phe-Leu-PyrS2-2C1F-BztA-Gln-NH2], the IC50 is 325 nM. On to `CC(=O)N1CCC[C@]12CCCCCCC1(CCCCCCCCOC(=O)N3CC[C@@](C(=O)N[C@@H](Cc4ccsc4)C(=O)N[C@@H](Cc4csc5ccccc45)C(=O)N[C@@H](CCC(N)=O)C(N)=O)(C3)NC(=O)[C@H](CC(N)=O)NC(=O)[C@H](Cc3ccccc3)NC(=O)[C@H](C)NC(=O)[C@H](C)NC(=O)[C@H](CC(=O)O)NC(=O)[C@H](CC(=O)O)NC1=O)NC(=O)[C@H](CC(C)(C)C)NC(=O)[C@H](CC(=O)O)NC2=O` (stereo partly drawn) [I-1987, Ac-PL3-Asp-Npg-B5-Asp-Asp-Ala-Ala-Phe-Asn-PyrS2-3Thi-BztA-Gln-NH2], for which the IC50 is 54 nM. To `CC(=O)N1CCC[C@H]1C(=O)N[C@@H](CC(=O)O)C(=O)N[C@@H](CC(C)(C)C)C(=O)N[C@]1(C)CCCCC=CCCCOC(=O)N2CC[C@@](C(=O)N[C@@H](Cc3ccsc3)C(=O)N[C@@H](Cc3csc4ccccc34)C(=O)N[C@@H](CCC(N)=O)C(N)=O)(C2)NC(=O)[C@H](CC(C)C)NC(=O)[C@H](Cc2ccccc2)NC(=O)[C@H](C)NC(=O)[C@H](C)NC(=O)[C@H](CC(=O)O)NC(=O)[C@H](CC(=O)O)NC1=O` [I-1988, Ac-Pro-Asp-Npg-R6-Asp-Asp-Ala-Ala-Phe-Leu-PyrS2-3Thi-BztA-Gln-NH2] belongs 312 nM.
